This test deals with MV-4-11 cells. Put plainly: Gene expression microarray analysis (Affymetrix PrimeView) and GSEA. In kind it is cell-based, human. The following applies: MV-4-11 cells, 48 hours. More on the design: RFU PODN (11730768_x_at) / Fold change /veh PODN (11730768_x_at) / RFU LINC00158 (11744669_a_at) / Fold change /veh LINC00158 (11744669_a_at) / RFU DUSP10 (11751237_a_at) / Fold change /veh DUSP10 (11751237_a_at) / RFU ID3 (11757404_x_at) / Fold change /veh ID3 (11757404_x_at) / RFU PLEKHG5 (11737974_s_at) / Fold change /veh PLEKHG5 (11737974_s_at) / RFU LRRC4B (11730491_at) / Fold change /veh LRRC4B (11730491_at) / RFU GIMAP4 (11747438_a_at) / Fold change /veh GIMAP4 (11747438_a_at) / RFU KRT8 (11758183_x_at) / Fold change /veh KRT8 (11758183_x_at) / RFU CNN1 (11734310_a_at) / Fold change /veh CNN1 (11734310_a_at) / RFU VPS37D (11726825_at) / Fold change /veh VPS37D (11726825_at) / RFU C10orf10 (11716522_x_at) / Fold change /veh C10orf10 (11716522_x_at) / RFU KIR2DL2 /// KIR2DL4 /// KIR2DL5A /// KIR2DL5B /// KIR2DS1 /// KIR2DS2 /// KIR2DS3 /// KIR2DS4 /// KIR3DL3 /// KIR3DL3 /// KIR3DS1 (11738374_at) / Fold change /veh KIR2DL2 /// KIR2DL4 /// KIR2DL5A /// KIR2DL5B /// KIR2DS1 /// KIR2DS2 /// KIR2DS3 /// KIR2DS4 /// KIR3DL3 /// KIR3DL3 /// KIR3DS1 (11738374_at) / RFU C1QL1 (11718748_at) / Fold change /veh C1QL1 (11718748_at) / RFU TMPRSS4 (11747572_a_at) / Fold change /veh TMPRSS4 (11747572_a_at) / RFU HAMP (11756126_x_at) / Fold change /veh HAMP (11756126_x_at) / RFU RNFT2 (11725882_a_at) / Fold change /veh RNFT2 (11725882_a_at) / RFU NR4A2 (11747474_a_at) / Fold change /veh NR4A2 (11747474_a_at) / RFU ABCC12 (11746883_a_at) / Fold change /veh ABCC12 (11746883_a_at) / RFU TMEM136 (11760407_x_at) / Fold change /veh TMEM136 (11760407_x_at) / RFU CLDN22 /// WWC2 (11732394_at) / Fold change /veh CLDN22 /// WWC2 (11732394_at) / RFU HLA-DPB1 (11760878_x_at) / Fold change /veh HLA-DPB1 (11760878_x_at) / RFU SPINT1 (11716480_a_at) / Fold change /veh SPINT1 (11716480_a_at) / RFU GAP43 (11754022_s_at) / Fold change /veh GAP43 (11754022_s_at) / RFU A4GNT (11735810_at) / Fold change /veh A4GNT (11735810_at) / RFU PRB3 (11715151_x_at) / Fold change /veh PRB3 (11715151_x_at) / RFU TUBB4B (11761932_at) / Fold change /veh TUBB4B (11761932_at) / RFU CAPN14 (11732068_a_at) / Fold change /veh CAPN14 (11732068_a_at) / RFU TMCC2 (11721928_a_at) / Fold change /veh TMCC2 (11721928_a_at) / RFU IRGQ (11745062_a_at) / Fold change /veh IRGQ (11745062_a_at) / RFU FAM174B (11720279_a_at) / Fold change /veh FAM174B (11720279_a_at) / RFU TMPRSS4 (11748680_a_at) / Fold change /veh TMPRSS4 (11748680_a_at) / RFU FAM212B (11763350_a_at) / Fold change /veh FAM212B (11763350_a_at) / RFU PLEKHG5 (11743358_a_at) / Fold change /veh PLEKHG5 (11743358_a_at) / RFU ZSCAN30 (11745921_a_at) / Fold change /veh ZSCAN30 (11745921_a_at) / RFU CMKLR1 (11741424_a_at) / Fold change /veh CMKLR1 (11741424_a_at) / RFU LOC101060620 /// MAPK8IP1 (11723275_at) / Fold change /veh LOC101060620 /// MAPK8IP1 (11723275_at) / RFU SPTSSB (11747773_x_at) / Fold change /veh SPTSSB (11747773_x_at) / RFU PRSS12 (11739890_at) / Fold change /veh PRSS12 (11739890_at) / RFU BIN1 (11741810_x_at) / Fold change /veh BIN1 (11741810_x_at) / RFU WNT11 (11732464_a_at) / Fold change /veh WNT11 (11732464_a_at) / RFU C10orf10 (11716521_a_at) / Fold change /veh C10orf10 (11716521_a_at) / RFU C5orf56 (11738089_at) / Fold change /veh C5orf56 (11738089_at) / RFU CYB561 (11721691_x_at) / Fold change /veh CYB561 (11721691_x_at) / RFU ANKRD19P (11752326_a_at) / Fold change /veh ANKRD19P (11752326_a_at) / RFU OR2T12 /// OR2T33 /// OR2T8 (11738714_s_at) / Fold change /veh OR2T12 /// OR2T33 /// OR2T8 (11738714_s_at) / RFU VCAN (11748164_a_at) / Fold change /veh VCAN (11748164_a_at) / RFU JSRP1 (11732532_at) / Fold change /veh JSRP1 (11732532_at) / RFU KRTAP10-11 (11738290_x_at) / Fold change /veh KRTAP10-11 (11738290_x_at) / RFU MYO3A (11730013_a_at) / Fold change /veh MYO3A (11730013_a_at) / RFU EBF3 (11725865_a_at) / Fold change /veh EBF3 (11725865_a_at) / RFU CAMK2N1 (11719241_x_at) / Fold change /veh CAMK2N1 (11719241_x_at) / RFU C5orf56 (11738088_a_at) / Fold change /veh C5orf56 (11738088_a_at) / RFU OLFML3 (11715873_a_at) / Fold change /veh OLFML3 (11715873_a_at) / RFU LOC100653217 /// NTM (11731650_a_at) / Fold change /veh LOC100653217 /// NTM (11731650_a_at) / RFU MAPK11 (11762145_a_at) / Fold change /veh MAPK11 (11762145_a_at) / RFU FIZ1 (11724087_x_at) / Fold change /veh FIZ1 (11724087_x_at) / RFU OASL (11726364_x_at) / Fold change /veh OASL (11726364_x_at) / RFU SOX15 (11748057_x_at) / Fold change /veh SOX15 (11748057_x_at) / RFU CD79A (11719716_a_at) / Fold change /veh CD79A (11719716_a_at) / RFU HIST1H1D (11736915_at) / Fold change /veh HIST1H1D (11736915_at) / RFU CASKIN2 (11723855_a_at) / Fold change /veh CASKIN2 (11723855_a_at) / RFU LOC730098 (11760151_x_at) / Fold change /veh LOC730098 (11760151_x_at) / RFU OR4N2 (11742367_at) / Fold change /veh OR4N2 (11742367_at) / RFU PRRT2 (11749266_a_at) / Fold change /veh PRRT2 (11749266_a_at) / RFU SNX32 (11753110_a_at) / Fold change /veh SNX32 (11753110_a_at) / RFU CDHR5 (11726645_a_at) / Fold change /veh CDHR5 (11726645_a_at) / RFU RCAN1 (11760418_a_at) / Fold change /veh RCAN1 (11760418_a_at) / RFU FAM167A (11723789_a_at) / Fold change /veh FAM167A (11723789_a_at) / RFU FAM26E (11764081_at) / Fold change /veh FAM26E (11764081_at) / RFU ISYNA1 (11749810_s_at) / Fold change /veh ISYNA1 (11749810_s_at) / RFU ACY1 (11761880_at) / Fold change /veh ACY1 (11761880_at) / RFU 11764098_at / Fold change /veh 11764098_at / RFU SAMD14 (11745864_x_at) / Fold change /veh SAMD14 (11745864_x_at) / RFU NPB (11741838_a_at) / Fold change /veh NPB (11741838_a_at) / RFU TMPRSS6 (11731388_a_at) / Fold change /veh TMPRSS6 (11731388_a_at) / RFU KRTAP10-2 (11738614_at) / Fold change /veh KRTAP10-2 (11738614_at) / RFU ARHGAP8 /// PRR5-ARHGAP8 (11727945_x_at) / Fold change /veh ARHGAP8 /// PRR5-ARHGAP8 (11727945_x_at) / RFU KRTAP5-7 /// NADSYN1 (11734609_at) / Fold change /veh KRTAP5-7 /// NADSYN1 (11734609_at) / RFU RASL12 (11751679_a_at) / Fold change /veh RASL12 (11751679_a_at) / RFU CDKN2B (11736163_a_at) / Fold change /veh CDKN2B (11736163_a_at) / RFU PRF1 (11729649_at) / Fold change /veh PRF1 (11729649_at) / RFU, ZNF638 /// ZNF638-IT1 / Fold change vs veh, ZNF638 /// ZNF638-IT1 / RFU, PANK3 / Fold change vs veh, PANK3 / RFU, SH3YL1 / Fold change vs veh, SH3YL1 / RFU, ZEB2 / Fold change vs veh, ZEB2 / RFU, NRIP1 / Fold change vs veh, NRIP1 / RFU, PTTG1IP / Fold change vs veh, PTTG1IP / RFU, CAPN2 / Fold change vs veh, CAPN2 / RFU, MED14 / Fold change vs veh, MED14 / RFU, SNORA58 / Fold change vs veh, SNORA58 / RFU, C1orf63 / Fold change vs veh, C1orf63 / RFU, LRRFIP1 / Fold change vs veh, LRRFIP1 / RFU, NDUFAF7 / Fold change vs veh, NDUFAF7 / RFU, SLC12A2 / Fold change vs veh, SLC12A2 / RFU, IBTK / Fold change vs veh, IBTK / RFU, ESF1 / Fold change vs veh, ESF1 / Fold change vs veh, TMEM50B / RFU, TAOK1 / Fold change vs veh, TAOK1 / RFU, ACBD3 / Fold change vs veh, ACBD3 / RFU, TMA16 / Fold change vs veh, TMA16 / RFU, RWDD3 / Fold change vs veh, RWDD3 / RFU, BCAT1 / Fold change vs veh, BCAT1 / RFU, EDEM3 / Fold change vs veh, EDEM3 / RFU, TMEM33 / Fold change vs veh, TMEM33 / RFU, WDR75 / Fold change vs veh, WDR75 / RFU, AHCTF1 / Fold change vs veh, AHCTF1 / RFU, TFRC / Fold change vs veh, TFRC / RFU, ZDHHC17 / Fold change vs veh, ZDHHC17 / RFU, NOM1 / Fold change vs veh, NOM1 / RFU, ARL8B / Fold change vs veh, ARL8B / RFU, ZBTB11 / Fold change vs veh, ZBTB11 / RFU, TAMM41 / Fold change vs veh, TAMM41 / RFU, KIAA1704 /// LOC100996395 / Fold change vs veh, KIAA1704 /// LOC100996395 / RFU, ING1 / Fold change vs veh, ING1 / RFU, TRMT61B / Fold change vs veh, TRMT61B / RFU, FUBP3 / Fold change vs veh, FUBP3 / RFU, TP53 / Fold change vs veh, TP53 / RFU, TNKS2 / Fold change vs veh, TNKS2 / RFU, ZFP14 / Fold change vs veh, ZFP14 / RFU, ACTR2 / Fold change vs veh, ACTR2 / RFU, PPP3R1 / Fold change vs veh, PPP3R1 / RFU, PIK3R1 / Fold change vs veh, PIK3R1 / RFU, HNRNPA1 / Fold change vs veh, HNRNPA1 / RFU, RNF170 / Fold change vs veh, RNF170 / RFU, ZNF28 / Fold change vs veh, ZNF28 / RFU, RNGTT / Fold change vs veh, RNGTT / RFU, OGT / Fold change vs veh, OGT / RFU, BRD1 / Fold change vs veh, BRD1 / RFU, MARS / Fold change vs veh, MARS / RFU, ZNF655 / Fold change vs veh, ZNF655 / RFU, FAHD1 / Fold change vs veh, FAHD1 / RFU, BDP1 / Fold change vs veh, BDP1 / RFU, LRRCC1 / Fold change vs veh, LRRCC1 / RFU, ARID1A / Fold change vs veh, ARID1A / RFU, ZNF146 / Fold change vs veh, ZNF146 / RFU, ZNF330 / Fold change vs veh, ZNF330 / RFU, GPN3 / Fold change vs veh, GPN3 / RFU, C9orf123 / Fold change vs veh, C9orf123 / RFU, N4BP2L2 / Fold change vs veh, N4BP2L2 / RFU, ARFIP1 / Fold change vs veh, ARFIP1 / RFU, FAM179B / Fold change vs veh, FAM179B / RFU, BCL10 / Fold change vs veh, BCL10 / RFU, UHRF1BP1L / Fold change vs veh, UHRF1BP1L / RFU, BET1 / Fold change vs veh, BET1 / RFU, CNOT2 / Fold change vs veh, CNOT2 / RFU, ZNF268 / Fold change vs veh, ZNF268 / Fold change vs veh, ZNF507 / RFU, DGCR2 / Fold change vs veh, DGCR2 / RFU, WDSUB1 / Fold change vs veh, WDSUB1 / Fold change vs veh, HSP90B1 /// MIR3652 / RFU, ADSS / Fold change vs veh, ADSS / RFU, GK / Fold change vs veh, GK / RFU, ZNF148 / Fold change vs veh, ZNF148 / RFU, TAF9 / Fold change vs veh, TAF9 / RFU, SLC1A5 / Fold change vs veh, SLC1A5 / RFU, SLMO2 / Fold change vs veh, SLMO2 / RFU, ABCC4 / Fold change vs veh, ABCC4 / RFU, LOC101060439 /// RAP1B / Fold change vs veh, LOC101060439 /// RAP1B / RFU, RFX7 / Fold change vs veh, RFX7 / RFU, GTPBP10 / Fold change vs veh, GTPBP10 / RFU, CNEP1R1 / Fold change vs veh, CNEP1R1 / RFU, BIVM-ERCC5 /// ERCC5 / Fold change vs veh, BIVM-ERCC5 /// ERCC5 / RFU, ILF3 / Fold change vs veh, ILF3 / RFU 11762660_at / Fold change /veh 11762660_at / RFU VCAN (11757783_s_at) / Fold change /veh VCAN (11757783_s_at) / RFU DDX43 (11728927_at) / Fold change /veh DDX43 (11728927_at) / RFU KRT8 (11758188_x_at) / Fold change /veh KRT8 (11758188_x_at) / RFU NKD1 (11759106_at) / Fold change /veh NKD1 (11759106_at) / RFU SRD5A1 (11742802_a_at) / Fold change /veh SRD5A1 (11742802_a_at) / RFU TPSAB1 /// TPSB2 (11721975_s_at) / Fold change /veh TPSAB1 /// TPSB2 (11721975_s_at) / RFU GSTM3 (11746129_a_at) / Fold change /veh GSTM3 (11746129_a_at) / RFU IL23R (11737362_x_at) / Fold change /veh IL23R (11737362_x_at) / RFU TMEM51 (11727254_a_at) / Fold change /veh TMEM51 (11727254_a_at) / RFU PIWIL2 (11732686_x_at) / Fold change /veh PIWIL2 (11732686_x_at) / RFU ORM1 (11744905_x_at) / Fold change /veh ORM1 (11744905_x_at) / RFU CCDC152 (11743942_at) / Fold change /veh CCDC152 (11743942_at) / RFU ECM1 (11717891_a_at) / Fold change /veh ECM1 (11717891_a_at) / RFU IL23R (11748794_a_at) / Fold change /veh IL23R (11748794_a_at) / RFU TNFAIP8L3 (11732012_x_at) / Fold change /veh TNFAIP8L3 (11732012_x_at) / RFU MBOAT4 (11741988_at) / Fold change /veh MBOAT4 (11741988_at) / RFU 11764193_at / Fold change /veh 11764193_at / RFU TMEM53 (11763286_at) / Fold change /veh TMEM53 (11763286_at) / RFU MAGEB2 (11727129_at) / Fold change /veh MAGEB2 (11727129_at) / RFU TMEM200A (11744735_a_at) / Fold change /veh TMEM200A (11744735_a_at) / RFU CCDC152 (11751479_a_at) / Fold change /veh CCDC152 (11751479_a_at) / RFU FAM211A (11726209_a_at) / Fold change /veh FAM211A (11726209_a_at) / RFU RGS16 (11746705_a_at) / Fold change /veh RGS16 (11746705_a_at) / RFU VCAN (11755009_s_at) / Fold change /veh VCAN (11755009_s_at) / RFU RHOB (11743442_s_at) / Fold change /veh RHOB (11743442_s_at) / RFU RGS16 (11720943_a_at) / Fold change /veh RGS16 (11720943_a_at) / RFU RGS16 (11720944_at) / Fold change /veh RGS16 (11720944_at) / RFU, VPS4B / Fold change vs veh, VPS4B / RFU, CREB1 / Fold change vs veh, CREB1 / RFU, DNAJC13 / Fold change vs veh, DNAJC13 / RFU, GNAQ / Fold change vs veh, GNAQ / RFU, CDK5R1 / Fold change vs veh, CDK5R1 / RFU, ZRANB3 / Fold change vs veh, ZRANB3 / RFU, CUL4A / Fold change vs veh, CUL4A / RFU, CCNY / Fold change vs veh, CCNY / RFU, UFL1 / Fold change vs veh, UFL1 / RFU, COG3 / Fold change vs veh, COG3 / RFU, DIAPH2 / Fold change vs veh, DIAPH2 / RFU, SKA2 / Fold change vs veh, SKA2 / RFU, AFF3 / Fold change vs veh, AFF3 / RFU, LMF1 / Fold change vs veh, LMF1 / RFU, IPO11 / Fold change vs veh, IPO11 / RFU, DFFB / Fold change vs veh, DFFB / RFU, FOXP1 / Fold change vs veh, FOXP1 / RFU, CARD8 / Fold change vs veh, CARD8 / RFU, STRN3 / Fold change vs veh, STRN3 / RFU, ADK / Fold change vs veh, ADK / RFU, RASSF2 / Fold change vs veh, RASSF2 / RFU, WIPF1 / Fold change vs veh, WIPF1 / RFU, LARP1B / Fold change vs veh, LARP1B / RFU, RASA1 / Fold change vs veh, RASA1 / RFU, RB1 / Fold change vs veh, RB1 / RFU, PPFIA1 / Fold change vs veh, PPFIA1 / RFU, MAT2A / Fold change vs veh, MAT2A / RFU, CCT5 / Fold change vs veh, CCT5 / RFU, WDR92 / Fold change vs veh, WDR92 / RFU, CUX1 / Fold change vs veh, CUX1 / RFU, TTC7A / Fold change vs veh, TTC7A / RFU, TMEM135 / Fold change vs veh, TMEM135 / RFU, DEPTOR / Fold change vs veh, DEPTOR / RFU, CPM / Fold change vs veh, CPM / RFU, DNAJB6 / Fold change vs veh, DNAJB6 / RFU, CACNA2D3 / Fold change vs veh, CACNA2D3 / RFU, DTX4 / Fold change vs veh, DTX4 / RFU, TFCP2 / Fold change vs veh, TFCP2 / RFU, GMCL1 /// GMCL1P1 / Fold change vs veh, GMCL1 /// GMCL1P1 / RFU, AEBP2 / Fold change vs veh, AEBP2 / RFU, SNHG1 /// SNORD22 /// SNORD25 /// SNORD26 /// SNORD27 /// SNORD28 /// SNORD29 /// SNORD31 / Fold change vs veh, SNHG1 /// SNORD22 /// SNORD25 /// SNORD26 /// SNORD27 /// SNORD28 /// SNORD29 /// SNORD31 / Fold change (Aza/veh), C12orf56 (ProbeSet 11735607_a_at) / Fold change (ACY-1035/veh), C12orf56 (ProbeSet 11735607_a_at) / Fold change (Aza/veh), FGFR1OP (ProbeSet 11751329_s_at) / Fold change (ACY-1035/veh), FGFR1OP (ProbeSet 11751329_s_at) / Fold change (Aza/veh), VPS36 (ProbeSet 11739960_a_at) / Fold change (ACY-1035/veh), VPS36 (ProbeSet 11739960_a_at) / RFU SYPL1 (11715823_x_at) / Fold change /veh SYPL1 (11715823_x_at) / RFU IGFBP7 (11715501_s_at) / Fold change /veh IGFBP7 (11715501_s_at) / RFU REEP3 (11722064_at) / Fold change /veh REEP3 (11722064_at) / RFU IGLL1 (11728026_x_at) / Fold change /veh IGLL1 (11728026_x_at): dose or concentration left out as unconfirmed.

SMILES strings stand for the structures.

In the case of `Nc1ccc(-c2cccs2)cc1NC(=O)c1ccc2c(c1)cc(C1CC1)n2CCN1CCOCC1` [ACY-1035], the “RFU CD79A (11719716_a_at)” value was 10.45 RFU.

These data come from paper PMC5218480 (PLoS ONE, 2017).
